According to patent US9676771B2, “Compounds for inhibiting drug-resistant strains of HIV-1 integrase” (priority 2013, dated 2017):
Read-outs that look alike come from different tables or passages of the source.

Legend:
HIV-1 integrase = HIV-1 integrase (Human immunodeficiency virus type 1 group M subtype B, UniProt P12497); experiment: biochemical; assay type: biochemical
Procedure: In Vitro Integrase Assay.
Integrase reactions were carried out by adding drugs or an equivalent volume of 100% dimethyl sulfoxide (DMSO; used as the drug solvent) to a mixture of 20 nM DNA and 400 nM integrase in 50 mM morpholinepropanesulfonic acid (pH 7.2), 7.5 mM MgCl2, and 14 mM 2-mercaptoethanol. Reactions were performed at 37° C. for 2 h and quenched by the addition of an equal volume of loading buffer (formamide containing 1% sodium dodecyl sulfate, 0.25% bromophenol blue, and xylene cyanol). […] Dried gels were visualized using a Typhoon 8600 (GE Healthcare, Piscataway, N.J.). Densitometric analyses were performed using ImageQuant 5.1 software from GE Healthcare.

in vitro = assay type: cell-based, human; details: human, Table 3; 50% reduction in the level of ATP in HOS cells
Procedure: Cellular Cytotoxicity Assay.
On the day of the screen, cells were treated with compounds at the appropriate concentration range chosen and incubated at 37° C. for 48 hrs. Cytotoxicity was measured by monitoring ATP levels via a luciferase reporter assay. Cells were lysed in 50 μL cell lysis buffer (PerkinElmer, Waltham, Mass.) and shaken at 700 rpm at room temperature for 5 mins After the addition of 50 μL of ATPlite buffer (PerkinElmer) directly onto the lysed cells and shaking at 700 rpm at room temperature for 5 mins, ATP levels were monitored by measuring luciferase activity using a microplate reader. Activity was normalized to cytotoxicity in the absence of target compounds. KaleidaGraph (Synergy Software, Reading, Pa.) was used to perform regression analysis on the data. CC50 values were determined from the fit model.

[1] = test system: HIV-1 constructs containing wild-type IN; experiment: microbe, parasite or virus in culture; assay type: cell-based; details: Human immunodeficiency virus 1; Table 3; WT IN; read-out: EC50 (nM, WT)
Text: Single-Round HIV-1 Infectivity Assay.
Human embryonyl kidney cell culture cell line 293 was acquired from the American type Culture Collection (ATCC).
The virus-containing supernatants were then harvested, clarified by low-speed centrifugation, filtrated, and diluted for preparation in infection assays. […] Activity was normalized to infectivity in the absence of target compounds. KaleidaGraph (Synergy Software, Reading, Pa.) was used to perform regression analysis on the data. EC50 values were determined from the fit model.

[2] = Table 4, 3′-processing, read-out: IC50 (3^+-Processing)
[3] = Table 4, strand transfer, read-out: IC50 (Strand Transfer)
[4] = read-out: IC50 (3^+-Processing)
[5] = read-out: IC50 (Strand Transfer)
[6] = Table 1, 3′-processing, read-out: IC50 Values 3′-Processing
[7] = Table 1, strand transfer, read-out: IC50 Values Strand transfer

Nc1c(C(=O)NCc2ccc(F)cc2F)c(=O)n(O)c2nc(N3CCCCC3)ccc12 [XZ410, 4-amino-N-(2,4-difluorobenzyl)-1-hydroxy-2-oxo-7-(piperidin-1-yl)-1,2-dihydro-1,8-naphthyridine-3-carboxamide]
IC50 (HIV-1 integrase; [2]): > 333 µM
IC50 (HIV-1 integrase; [3]): 54 ± 18 µM

COC(=O)[C@H](C)Nc1c(C(=O)NCc2ccc(F)cc2F)c(=O)n(O)c2ncccc12 [XZ394, (S)-methyl 2-((3-((2,4-difluorobenzyl)carbamoyl)-1-hydroxy-2-oxo-1,2-dihydro-1,8-naphthyridin-4-yl)amino)propanoat]
CC50 (in vitro): > 250 µM
EC50 [1]: 4.2 ± 1.6 nM

COC(=O)CNc1c(C(=O)NCc2ccc(F)cc2F)c(=O)n(O)c2nc(N3CCCCC3)ccc12 [XZ411, methyl 2-((3-((2,4-difluorobenzyl)carbamoyl)-1-hydroxy-2-oxo-7-(piperidin-1-yl)-1,2-dihydro-1,8-naphthyridin-4-yl)amino)acetate]
IC50 (HIV-1 integrase; [3]): 96 ± 40 µM

Nc1c(C(=O)NCc2ccc(F)cc2F)c(=O)n(O)c2nc(N3CCOCC3)ccc12 [XZ413, 4-amino-N-(2,4-difluorobenzyl)-1-hydroxy-7-morpholino-2-oxo-1,2-dihydro-1,8-naphthyridine-3-carboxamide]
IC50 (HIV-1 integrase; [2]): > 333 µM
IC50 (HIV-1 integrase; [3]): 54 ± 10 µM

O=C(NCc1ccc(F)cc1F)c1c(NCCc2ccccc2)c2cccnc2n(O)c1=O [XZ382, N-(2,4-difluorobenzyl)-1-hydroxy-2-oxo-4-(phenethylamino)-1,2-dihydro-1,8-naphthyridine-3-carboxamide]
IC50 (HIV-1 integrase; [4]): 8 ± 1.5 µM
IC50 (HIV-1 integrase; [5]): 0.05 ± 0.012 µM
CC50 (in vitro): > 250 µM
EC50 [1]: 14.1 ± 7.9 nM

COC(=O)CNc1c(C(=O)NCc2ccc(F)cc2F)c(=O)n(O)c2nc(N3CCOCC3)ccc12 [XZ414, methyl 2-((3-((2,4-difluorobenzyl)carbamoyl)-1-hydroxy-7-morpholino-2-oxo-1,2-dihydro-1,8-naphthyridin-4-yl)amino)acetate]
IC50 (HIV-1 integrase; [3]): 6.2 ± 0.8 µM

NCc1ccc(-c2ccc(Nc3c(C(=O)NCc4ccc(F)cc4F)c(=O)n(O)c4ncccc34)cc2)cc1 [XZ389, 4-((4′-(aminomethyl)-[1,1′-biphenyl]-4-yl)amino)-N-(2,4-difluorobenzyl)-1-hydroxy-2-oxo-1,2-dihydro-1,8-naphthyridine-3-carboxamide]
IC50 (HIV-1 integrase; [2]): > 333 µM
IC50 (HIV-1 integrase; [3]): 29 ± 13 µM
CC50 (in vitro): 0.414 µM
EC50 [1]: 411 ± 30 nM

COc1cccc2cc(C(=O)NCc3ccc(F)cc3F)c(=O)n(O)c12 [XZ370, N-(2,4-difluorobenzyl)-1-hydroxy-8-methoxy-2-oxo-1,2-dihydroquinoline-3-carboxamide]
IC50 (HIV-1 integrase; [6]): > 333 µM
IC50 (HIV-1 integrase; [7]): > 333 µM

O=C(NCc1ccc(F)c(Cl)c1)c1c(O)c2cccnc2[nH]c1=O [XZ366, N-(3-chloro-4-fluorobenzyl)-4-hydroxy-2-oxo-1,2-dihydro-1,8-naphthyridine-3-carboxamide]
IC50 (HIV-1 integrase; [6]): 125 ± 15 µM
IC50 (HIV-1 integrase; [7]): 7.8 ± 1.1 µM

O=C(NCc1ccc(F)cc1F)c1c(O)c2ccc(N3CCOCC3)nc2n(O)c1=O [XZ412, N-(2,4-difluorobenzyl)-1,4-dihydroxy-7-morpholino-2-oxo-1,2-dihydro-1,8-naphthyridine-3-carboxamide]
IC50 (HIV-1 integrase; [2]): > 333 µM
IC50 (HIV-1 integrase; [3]): 1.9 ± 0.2 µM

NCCNc1c(C(=O)NCc2ccc(F)cc2F)c(=O)n(O)c2ncccc12 [XZ403, 4-((2-aminoethyl)amino)-N-(2,4-difluorobenzyl)-1-hydroxy-2-oxo-1,2-dihydro-1,8-naphthyridine-3-carboxamide]
IC50 (HIV-1 integrase; [4]): 4.5 ± 0.2 µM
IC50 (HIV-1 integrase; [5]): 0.039 ± 0.006 µM
CC50 (in vitro): 9.6 ± 3.7 µM
EC50 [1]: 34.7 ± 10.5 nM

CCCCCNc1c(C(=O)NCc2ccc(F)cc2F)c(=O)n(O)c2ncccc12 [XZ380, N-(2,4-difluorobenzyl)-1-hydroxy-2-oxo-4-(pentylamino)-1,2-dihydro-1,8-naphthyridine-3-carboxamide]
IC50 (HIV-1 integrase; [4]): 8.2 ± 1.6 µM
IC50 (HIV-1 integrase; [5]): 0.024 ± 0.009 µM
CC50 (in vitro): 94.2 ± 24.4 µM
EC50 [1]: 7.4 ± 1.4 nM

CC(C)Nc1c(C(=O)NCc2ccc(F)cc2F)c(=O)n(O)c2ncccc12 [XZ381, N-(2,4-difluorobenzyl)-1-hydroxy-4-(isopropylamino)-2-oxo-1,2-dihydro-1,8-naphthyridine-3-carboxamide]
IC50 (HIV-1 integrase; [4]): 1.8 ± 0.2 µM
IC50 (HIV-1 integrase; [5]): 0.016 ± 0.004 µM
CC50 (in vitro): > 250 µM
EC50 [1]: 7.2 ± 3 nM

O=C(NCc1ccc(F)c(F)c1)c1cc2cccc(O)c2n(O)c1=O [XZ375, N-(3,4-difluorobenzyl)-1,8-dihydroxy-2-oxo-1,2-dihydroquinoline-3-carboxamide]
IC50 (HIV-1 integrase; [6]): 24 ± 3 µM
IC50 (HIV-1 integrase; [7]): 0.78 ± 0.22 µM

O=C(NCc1ccc(F)cc1F)c1cc2cccc(O)c2n(O)c1=O [XZ369, N-(2,4-difluorobenzyl)-1,8-dihydroxy-2-oxo-1,2-dihydroquinoline-3-carboxamide]
IC50 (HIV-1 integrase; [6]): 43 ± 5 µM
IC50 (HIV-1 integrase; [7]): 18 ± 7 µM

COC(=O)[C@@H](Nc1c(C(=O)NCc2ccc(F)cc2F)c(=O)n(O)c2ncccc12)c1ccccc1 [XZ396, (S)-methyl 2-((3-((2,4-difluorobenzyl)carbamoyl)-1-hydroxy-2-oxo-1,2-dihydro-1,8-naphthyridin-4-yl)amino)-2-phenylacetate]
CC50 (in vitro): > 250 µM

O=C(NCc1ccc(F)c(F)c1)c1c(O)c2cccnc2[nH]c1=O [XZ368, N-(3,4-difluorobenzyl)-4-hydroxy-2-oxo-1,2-dihydro-1,8-naphthyridine-3-carboxamide]
IC50 (HIV-1 integrase; [6]): 93 ± 8 µM
IC50 (HIV-1 integrase; [7]): 8.1 ± 1.8 µM

O=C(NCc1ccc(F)c(Cl)c1)c1cc2cccc(O)c2n(O)c1=O [XZ374, N-(3-chloro-4-fluorobenzyl)-1,8-dihydroxy-2-oxo-1,2-dihydroquinoline-3-carboxamide]
IC50 (HIV-1 integrase; [6]): 17 ± 1 µM
IC50 (HIV-1 integrase; [7]): 0.53 ± 0.13 µM

O=C(NCc1ccc(F)cc1F)c1c(O)c2ccc(N3CCCCC3)nc2n(O)c1=O [XZ409, N-(2,4-difluorobenzyl)-1,4-dihydroxy-2-oxo-7-(piperidin-1-yl)-1,2-dihydro-1,8-naphthyridine-3-carboxamide]
IC50 (HIV-1 integrase; [2]): > 333 µM
IC50 (HIV-1 integrase; [3]): 70 ± 16 µM

O=C(NCc1ccc(F)cc1F)c1c(O)c2cccnc2[nH]c1=O [XZ352, N-(2,4-difluorobenzyl)-4-hydroxy-2-oxo-1,2-dihydro-1,8-naphthyridine-3-carboxamide]
IC50 (HIV-1 integrase; [6]): > 333 µM
IC50 (HIV-1 integrase; [7]): 7.1 ± 1.8 µM

COC(=O)[C@H](CO)Nc1c(C(=O)NCc2ccc(F)cc2F)c(=O)n(O)c2ncccc12 [XZ398, (S)-methyl 2-((3-((2,4-difluorobenzyl)carbamoyl)-1-hydroxy-2-oxo-1,2-dihydro-1,8-naphthyridin-4-yl)amino)-3-hydroxypropanoate]
IC50 (HIV-1 integrase; [4]): 5.8 ± 0.5 µM
IC50 (HIV-1 integrase; [5]): 0.0084 ± 0.0032 µM
CC50 (in vitro): > 250 µM
EC50 [1]: 9.7 ± 3 nM

O=C(NCc1ccc(F)cc1F)c1cc2ccccc2n(O)c1=O [XZ353, N-(2,4-difluorobenzyl)-1-hydroxy-2-oxo-1,2-dihydroquinoline-3-carboxamide]
IC50 (HIV-1 integrase; [6]): > 333 µM
IC50 (HIV-1 integrase; [7]): 19.7 ± 2.7 µM

CNc1c(C(=O)NCc2ccc(F)cc2F)c(=O)n(O)c2ncccc12 [XZ371, N-(2,4-difluorobenzyl)-1-hydroxy-4-(methylamino)-2-oxo-1,2-dihydro-1,8-naphthyridine-3-carboxamide]
IC50 (HIV-1 integrase; [4]): 3.7 ± 0.4 µM
IC50 (HIV-1 integrase; [5]): 0.027 ± 0.004 µM
CC50 (in vitro): > 250 µM
EC50 [1]: 3.1 ± 0.6 nM

COC(=O)[C@@H](CO)Nc1c(C(=O)NCc2ccc(F)cc2F)c(=O)n(O)c2ncccc12 [XZ399, (R)-methyl 2-((3-((2,4-difluorobenzyl)carbamoyl)-1-hydroxy-2-oxo-1,2-dihydro-1,8-naphthyridin-4-yl)amino)-3-hydroxypropanoate]
IC50 (HIV-1 integrase; [4]): 4.4 ± 0.5 µM
IC50 (HIV-1 integrase; [5]): 0.013 µM
CC50 (in vitro): > 250 µM
EC50 [1]: 14.2 ± 3.71 nM

O=C(NCc1ccc(F)cc1)c1c(O)c2cccnc2[nH]c1=O [XZ364, N-(4-fluorobenzyl)-4-hydroxy-2-oxo-1,2-dihydro-1,8-naphthyridine-3-carboxamide]
IC50 (HIV-1 integrase; [6]): 136 ± 16 µM
IC50 (HIV-1 integrase; [7]): 5.1 ± 1.5 µM
